The text below walks through data of patent US20140039008A1, “METHODS FOR THE ADMINISTRATION OF ILOPERIDONE” (VANDA PHARMACEUTICALS, INC., priority 2004, published 2014).

In series [1] the target is HERG channel (Homo sapiens, UniProt Q12809). In words: affinity for the HERG channel. It counts as binding.
Series [2] in a line: lipophilicity. The class given is physicochemical. As to conditions: compared to iloperidone.
The nature of series [3]: interaction study: addition of CYP2D6 inhibitor fluoxetine, AUC. As to conditions: addition of CYP2D6 inhibitor fluoxetine along with iloperidone.
A short description of series [4]: Example 1: blood concentrations of P88 and P95 after iloperidone by CYP2D6 genotype, with and without inhibitor. The class given is in vivo, human. Also on record: unit not given here. The conditions noted are these: at Tmax of P88, without inhibitor. The source says: The research leading to the present invention was designed to examine the effect of different doses of iloperidone relative to the effect of ziprasidone and quetiapine on QTc duration under carefully controlled conditions. To further evaluate the possible relationship between exposure to iloperidone and the comparators to QTc duration, reassessment after pharmacological inhibition of the principle metabolic pathways for each drug, under steady-state conditions, was also planned.
Blood samples for pharmacogenetic analysis were collected at screening. Two polymorphisms previously associated with poor metabolizing status were genotyped in the CYP2D6 locus, and 251 genotypes were collected. The individual genotypes were studied for detection of association between genotype class and concentrations of iloperidone and its metabolites P88 and P95. The functional effect of the polymorphisms was also evaluated by analyzing the effect of the addition of the CYP2D6 inhibitor paroxetine on the concentrations of the parent drug and its metabolites.
The addition of metabolic inhibitors in this study therefore allowed for an evaluation of the effect of increasing blood-concentration of iloperidone and/or its metabolites on QT duration. More specifically, this study allowed for an evaluation of the effect of iloperidone on QTc before and after the addition of the CYP2D6 inhibitor, paroxetine, as well as before and after the addition of the CYP3A4 inhibitor, ketoconazole.
128 individuals consented to the pharmacogenetic study. Blood samples were collected according to the pharmacogenetics protocol and after the consent of patients. The DNA was extracted from whole blood by Covance using the PUREGENE DNA isolation kit (D-50K).
The 128 individuals that participated were a good representation of the total sample of 165 individuals that participated in the trial. 22 of 29 total were from the iloperidone 8 mg bid group, 30 of 34 were from the iloperidone 12 mg bid group, 22 of 31 from the 24 mg qd group, 3 of 5 of the risperidone group, 28 of 33 of the ziprazidone group, and 23 of 33 of the quetiapine group.
The genotype effect of the two CYP2D6 polymorphisms on period 1 concentrations was evaluated using the following ANOVA model. Concentrations of iloperidone, P88, and P95 at Period 1, without inhibitor, at the time at which maximum blood concentration of the parent compound or metabolite was reached (Tmax) were used as the dependent variable, the genotypes of each polymorphism as classes and the treatment as a covariate. In order to adjust for treatment effects after the single dose of iloperidone, the 8 mg bid was coded as 8, the 12 mg bid as 12 and the 24 mg qd as 24.
The function of these polymorphisms on the degree of inhibition of the CYP2D6 enzyme was calculated from the ratio of concentrations of P88 and P95 in period 2, after the addition of the inhibitor of CYP2D6. The concentrations of iloperidone and/or its metabolites (e.g., P88 and P95) may be determined in period 1 and/or period 2 by any known or later-developed method or device, including titration.
In order to understand the functional significance of the two CYP2D6 polymorphisms on the activity of the enzyme, the association of the various genotypes with the relative concentrations of the metabolites P88 and P95 were examined. It is known that P88 is degraded by CYP2D6 and that CYP2D6 is involved in the synthesis of P95. The relative amounts of P88 and P95 would therefore be controlled by the activity of the CYP2D6 enzyme. The ratio of P88/P95 was calculated before inhibition in Period 1 and at the Tmax of the two metabolites, as well as the ratio of P88/P95 in Period 2 after the addition of the CYP2D6 inhibitor paroxetine. In individuals with the wild type enzyme the concentration of P88 is expected to increase in Period 2, while in the same period the concentration of P95 is expected to decline.

Sequence of HERG channel (Q12809 whole entry): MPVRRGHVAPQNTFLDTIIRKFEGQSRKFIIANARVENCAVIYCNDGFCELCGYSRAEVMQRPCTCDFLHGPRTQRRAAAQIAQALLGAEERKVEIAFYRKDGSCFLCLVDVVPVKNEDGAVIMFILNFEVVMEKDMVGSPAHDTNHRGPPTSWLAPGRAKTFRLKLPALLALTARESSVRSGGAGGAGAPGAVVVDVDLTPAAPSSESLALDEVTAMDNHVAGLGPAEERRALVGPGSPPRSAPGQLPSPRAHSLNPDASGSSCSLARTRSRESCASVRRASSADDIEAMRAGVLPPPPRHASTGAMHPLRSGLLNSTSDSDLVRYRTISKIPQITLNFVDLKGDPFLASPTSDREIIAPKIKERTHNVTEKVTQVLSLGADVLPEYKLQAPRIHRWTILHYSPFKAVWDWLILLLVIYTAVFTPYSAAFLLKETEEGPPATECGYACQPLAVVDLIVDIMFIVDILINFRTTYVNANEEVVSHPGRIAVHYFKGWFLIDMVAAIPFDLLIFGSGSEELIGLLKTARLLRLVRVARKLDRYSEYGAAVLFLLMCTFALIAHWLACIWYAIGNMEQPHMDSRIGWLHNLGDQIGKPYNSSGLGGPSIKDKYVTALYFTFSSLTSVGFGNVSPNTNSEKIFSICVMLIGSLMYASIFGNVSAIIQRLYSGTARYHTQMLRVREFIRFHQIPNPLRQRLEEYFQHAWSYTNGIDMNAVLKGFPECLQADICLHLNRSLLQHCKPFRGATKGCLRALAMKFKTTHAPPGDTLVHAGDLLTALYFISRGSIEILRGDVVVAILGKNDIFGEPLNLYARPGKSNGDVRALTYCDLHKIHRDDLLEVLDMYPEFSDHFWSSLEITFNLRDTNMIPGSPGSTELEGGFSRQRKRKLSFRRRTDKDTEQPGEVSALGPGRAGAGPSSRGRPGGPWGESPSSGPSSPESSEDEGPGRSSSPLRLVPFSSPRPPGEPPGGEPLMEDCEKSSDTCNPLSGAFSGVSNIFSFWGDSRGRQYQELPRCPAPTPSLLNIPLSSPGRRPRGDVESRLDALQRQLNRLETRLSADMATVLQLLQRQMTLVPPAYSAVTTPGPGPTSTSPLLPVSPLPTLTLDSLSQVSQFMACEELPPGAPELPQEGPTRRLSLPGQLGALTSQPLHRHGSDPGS

As for `COc1cc(C(=O)O)ccc1OCCCN1CCC(c2noc3cc(F)ccc23)CC1` [P95], the “affinity for the HERG channel” value in series [1] is listed as “very low affinity”. The lipophilicity result in series [2] is reported as “less lipophilic”.
Turning to `COc1cc(C(C)O)ccc1OCCCN1CCC(c2noc3cc(F)ccc23)CC1` (stereo not drawn) [P88], the “increase of the area under the curve (AUC)” value in series [3] is given as 119%. For the same compound, the “P88 concentrations in Period 1, LSMeans” value in series [4] (CYP2D6C100T CC) was found to be 21.03; in series [4] (CYP2D6C100T CT) it was 33.16; in series [4] (CYP2D6C100T TT), 51.00; in series [4] (CYP2D6G1846A AA), 62.70; in series [4] (CYP2D6G1846A AG) it was 31.40; in series [4] (CYP2D6G1846A GG), 21.03.
